| melting point | SMILES |
| --- | --- |
| 88 °C | CC(C#N)Oc1cccc(CN2C(=O)c3cccc(NC(=O)c4ccc(Cl)s4)c3C2=O)c1 (centres unmarked) [Example 7, 5-Chloro-N-{2-[3-(1-cyanoethoxy)benzyl]-1,3-dioxo-2,3-dihydro-1H-isoindol-4-yl}-2-thiophenecarboxamide] |
| 199 °C | N#CCOc1ccc(CN2C(=O)c3cccc(NC(=O)c4ccc(Cl)s4)c3C2=O)cc1 [Example 6, 5-Chloro-N-{2-[4-(cyanomethoxy)benzyl]-1,3-dioxo-2,3-dihydro-1H-isoindol-4-yl}-2-thiophenecarboxamide] |
